The source of these data is patent publication US8058468B2, “Carbamate antibiotics” (Nederlandse Organisatie Voor …, priority 2005, dated 2011).

For series [1], the system named is MRSA 2141. As to the kind of experiment: Local thigh muscle infection with MRSA 2141 in the mouse, CFU outgrowth. The note with it: for Log reduction of MRSA 2141 CFU in thigh muscle: vs vehicle; for Reduction of bacterial outgrowth against the untreated group: P≦0.01. Format: in vivo. How it is done: (§1) The purpose of this study was to investigate the antibiotic efficacy of different doses of compound BAS00674552 against a local infection with MRSA 2141 in the mouse. Thirty mice were treated intravenously with 0.5, 5.0 or 50 mg/kg body weight, respectively. The observation period was three days. Outgrowth of the infection was used to establish drug efficacy.
The test substances were administered as a solution in dimethylsulfoxide (DMSO). The test substance was administered as 20 μl injections per mouse at all dose levels. Vancomycin was used as positive control and injected intravenously as a 10 mg/ml solution in DMSO (20 μl per mouse).
The study was performed according to Lab-Sop-Amp-Anim-002 and Lab-Sop-Amp-Bac-003. In short, mice were injected with 11E05 MRSA bacteria, strain 2141 in the right thigh muscle, followed one day later by an i.v. injection of the test compound, vancomycin or vehicle in the tail vein. 24 hours later mice were sacrificed, blood was collected by heart puncture and the right thigh muscle was removed. Plasma was prepared from blood samples and stored at −80°±10° C. for possible future analysis. Thigh muscles were weighted and homogenized using an Ultra-Turrax® and dilutions of the homogenate were prepared in saline. Limiting dilutions were plated onto agar plates and two days later the number of MRSA 2141 CFU were determined for each individual mouse as an indication of bactericidal activity of the compound. Additionally, tests were performed to determine if the bacteria used are still oxacillin resistant Staphylococcus aureus. This was done before injection and on pooled thigh muscle isolates per group. For this purpose Staphaurex® (Remel Europe Ltd., Crossways, UK) and ORSAB®+supplements (Oxoid Ltd., Basingstoke, UK) were used. In vivo antibiotic activity is determined by a CFU reduction of >90% (1 log reduction) in comparison to the negative control (vehicle only).
The study was comprised five groups of 10 females each.

In series [2] the test system is S. aureus ATCC 29213. As to the kind of experiment: MIC test (CLSI M7-A6), single strain. Format: cell-based. The note with it: Staphylococcus aureus, ATCC29213; single strain ATCC 29213. As for the experimental part: (§2) MIC test were performed according to standard methodology: M7-A6-“Methods for Dilution Antimicrobial Susceptibility Tests for Bacteria That Grow Aerobically”; Approved Standard, Sixth Edition Clinical and Laboratory Standards Institute 2005 (CLSI/formerly NCCLS).
(§3) Table 2 lists the results of 3 different compounds according to Formula (I) on single strains of S. aureus as MIC values expressed in micrograms per milliliter.

Series [3] concerns S. aureus MW2. Kind of series: MIC test (CLSI M7-A6), single strain. Format: cell-based. The note with it: Staphylococcus aureus. How it is done:
as §2, §3

The test system of series [4] is S. aureus N315. Kind of series: MIC test (CLSI M7-A6), single strain. The note with it: Staphylococcus aureus. Format: cell-based. As for the experimental part: as §2, §3
Series [5] deals with multiple strains of S. aureus. Kind of series: MIC test on multiple strains of S. aureus. In kind it is cell-based, Staphylococcus aureus. The following applies: for MIC 50 / MIC 90: 59-60 tested S. aureus strains; for Range MIC (lowest-highest): highest: highest value over 59-60 tested S. aureus strains; for Range MIC (lowest-highest): lowest: lowest value over 59-60 tested S. aureus strains. How it is done:
MIC test were performed according to standard methodology: M7-A6-“Methods for Dilution Antimicrobial Susceptibility Tests for Bacteria That Grow Aerobically”; Approved Standard, Sixth Edition Clinical and Laboratory Standards Institute 2005 (CLSI/formerly NCCLS). The MIC values are expressed as a range between the lowest value and the highest value found in these experiments. Both the average MIC50 and MIC90 are indicated in bold.

The subject of series [6] is S. aureus ATCC6538. As to the kind of experiment: Further MIC tests, performed as in Example 1. Format: cell-based. The note with it: Staphylococcus aureus. How it is done: as §2
Further MIC tests, performed as in Example 1, were performed on several of the above synthesized compounds.

The nature of series [7]: Observation scoring for adverse side effects in infected treated mice. Format: in vivo, mouse. The note with it: all animals. As for the experimental part:
as §1

Where [8] appears, read: duplo (duplicate determination), read-out: MIC-value S. aureus ATCC6538 duplo.
Setting [9] is: first determination, read-out: MIC-value S. aureus ATCC6538.

Converted amounts (≈) assume the structure as drawn. Where two headings read alike, the source gives them in different places. Where only a bound is given, the exact number is not on record here.

As for `CN[C@H](CC(C)C)C(=O)N[C@H]1C(=O)N[C@@H](CC(N)=O)C(=O)N[C@H]2C(=O)N[C@H]3C(=O)N[C@H](C(=O)N[C@H](C(=O)O)c4cc(O)cc(O)c4-c4cc3ccc4O)[C@H](O)c3ccc(c(Cl)c3)Oc3cc2cc(c3O[C@@H]2O[C@H](CO)[C@@H](O)[C@H](O)[C@H]2O[C@H]2C[C@](C)(N)[C@H](O)[C@H](C)O2)Oc2ccc(cc2Cl)[C@H]1O` [vancomycin, Vancomycin, reference compound], the “Log reduction of MRSA 2141 CFU in thigh muscle” value in series [1] (positive control, 10 mg/ml i.v., 20 μl per mouse (10 mg/kg)) was “Over 1 Log”.

Broadly, the MIC is the lowest concentration found to suppress growth. In the case of `CCC(COC(=O)Nc1ccc(Cl)c(Cl)c1)NC(=O)OC(C)C` (centres unmarked) [BAS 00674544, (3,4-dichloro-phenyl)-carbamic acid 2-isopropoxycarbonylamino-butyl ester], the MIC in series [2] is 8 µg/mL (≈ 22 µM). This molecule yielded an MIC in series [3] of 8 µg/mL (≈ 22 µM). The molecule further showed an MIC in series [4] of 8 µg/mL (≈ 22 µM). In addition, in series [5], the “MIC 50” value came out at 16 microgram/milliliter, the “MIC 90” value worked out at 32 microgram/milliliter, the “Range MIC (lowest-highest): highest” value is listed as above 32 microgram/milliliter and the “Range MIC (lowest-highest): lowest” value turned out to be 8 microgram/milliliter.

In the case of `CC(C)COC(=O)NCC(C)OC(=O)Nc1ccc(Cl)c(Cl)c1` (centres unmarked) [BAS 00674552, (3,4-dichloro-phenyl)-carbamic acid 2-isobutoxycarbonylamino-1-methyl-ethyl ester], the MIC was determined as 8 µg/mL (≈ 22 µM) in series [2]; 4 µg/mL (≈ 11 µM) in series [3]; 4 µg/mL (≈ 11 µM) in series [4]; 6.25 µg/mL (≈ 17.2 µM) in series [6] (setting [8]); 25 µg/mL (≈ 68.8 µM) in series [6] (setting [9]). In addition, the “MIC 50” value in series [5] amounted to 8 microgram/milliliter. Moreover, in series [5], the “MIC 90” value is 16 microgram/milliliter. For the same molecule, the “Range MIC (lowest-highest): highest” value in series [5] is above 32 microgram/milliliter. Besides, the “Range MIC (lowest-highest): lowest” value in series [5] worked out at 4 microgram/milliliter. Also, the “Log reduction of MRSA 2141 CFU in thigh muscle” value in series [1] (5 mg/kg single i.v. dose, 24 h after dosing) is on record as “Approximately 2 Log”; in series [1] (50 mg/kg single i.v. dose, 24 h after dosing), “Approximately 2 Log”. The “Reduction of bacterial outgrowth against the untreated group” value in series [1] (5 mg/kg) and in series [1] (50 mg/kg) was “significant reduction of bacterial outgrowth” throughout. Further, in series [1] (all doses, P≦0.001), the “Efficacy against local MRSA 2141 infection (statistical analysis)” value was “effective”. For the same molecule, the “Score on observation scoring sheets (DEC guidelines)” value in series [7] is on record as below 8. The Adverse side effects result in series [7] (single i.v. dose 0.5-50 mg/kg) was “no signs of adverse side effects were observed”.

The molecule `CCOC(=O)NCCOC(=O)Nc1ccc(Cl)c(Cl)c1` [BAS 00212008, (3,4-dichloro-phenyl)-carbamic acid 2-ethoxycarbonylamino-ethyl ester] yielded a minimal inhibitory concentration (MIC) in series [2] of 16 µg/mL (≈ 49.8 µM). In addition, inhibition of growth in series [3] (MIC) required 16 µg/mL (≈ 49.8 µM). Besides, the MIC in series [4] was 8 µg/mL (≈ 24.9 µM). Further, in series [5], the “MIC 50” value is listed as above 32 microgram/milliliter, the “MIC 90” value is on record as above 32 microgram/milliliter, the “Range MIC (lowest-highest): highest” value is on record as above 32 microgram/milliliter and the “Range MIC (lowest-highest): lowest” value was above 32 microgram/milliliter.

In the case of `CNC(=O)OCCOC(=O)Nc1ccc(Cl)c(Cl)c1` [TAC 1_010, (3,4-dichloro-phenyl)-carbamic acid 2-methylcarbamoyloxy-ethyl ester], the figures for the MIC in series [6] (setting [8]) and in series [6] (setting [9]) were 50 µg/mL (≈ 163 µM) and 100 µg/mL (≈ 326 µM), respectively.

As for `CC(C)COC(=O)NCC(C)OC(=O)Nc1ccc(C(F)(F)F)cc1` (centres unmarked) [TAC 1_007, (4-trifluoromethyl-phenyl)-carbamic acid 2-isobutoxycarbonylamino-1-methyl-ethyl ester], the results for the MIC in series [6] (setting [8]) and in series [6] (setting [9]) were 25 µg/mL (≈ 69 µM) and 12.5 µg/mL (≈ 34.5 µM), respectively.

For `CCNC(=O)OCCOC(=O)Nc1ccc(Cl)c(Cl)c1` [TAC 1_011, (3,4-dichloro-phenyl)-carbamic acid 2-ethylcarbamoyloxy-ethyl ester], the MIC in series [6] (setting [8]) and in series [6] (setting [9]) was 100 µg/mL (≈ 311 µM) each time.

For the molecule `NC(=O)OCCOC(=O)Nc1ccc(Cl)c(Cl)c1` [TAC 1_009, (3,4-dichloro-phenyl)-carbamic acid 2-carbamoyloxy-ethyl ester], the MIC came to 50 µg/mL (≈ 171 µM) in series [6] (setting [8]) and 100 µg/mL (≈ 341 µM) in series [6] (setting [9]).

`Cc1ccc(NC(=O)OC(C)CNC(=O)OCC(C)C)cc1` (centres unmarked) [TAC 1_005, p-tolyl-carbamic acid 2-isobutoxycarbonylamino-1-methyl-ethyl ester]: the MIC in series [6] (setting [8]) was 50 µg/mL (≈ 162 µM); in series [6] (setting [9]), 100 µg/mL (≈ 324 µM).
